Species: Rattus norvegicus
Test: DrugMatrix - Regimen: Daily Repeat
Assay type: toxicity, organism-based, Sprague-Dawley
Design: regimen Daily Repeat, gender Male, age 6-8 weeks
Conditions: in vivo, po, 0 mg/kg, route oral GAVAGE, dose level Control, vehicle .5 % CMC; for BASOPHIL / EOSINOPHIL / ERYTHROCYTE COUNT / HEMATOCRIT / HEMOGLOBIN / LEUKOCYTE COUNT / LYMPHOCYTE / MEAN CORPUSCULAR HEMOGLOBIN / MEAN CORPUSCULAR HEMOGLOBIN CONCENTRATION / MEAN CORPUSCULAR VOLUME / MONOCYTE / NEUTROPHIL / PLATELET COUNT: tissue Blood; for ALANINE AMINOTRANSFERASE / ALBUMIN / ALKALINE PHOSPHATASE / ASPARTATE AMINOTRANSFERASE / BLOOD UREA NITROGEN / CARBON DIOXIDE / CHLORIDE / CHOLESTEROL / CREATINE PHOSPHOKINASE / CREATININE / GLUCOSE / LACTATE DEHYDROGENASE / LIPASE / PHOSPHORUS / POTASSIUM / SODIUM / TOTAL BILIRUBIN / TOTAL PROTEIN / URIC ACID: tissue Plasma

SMILES: COc1ccc(C(=O)Nc2c(Cl)c[n+]([O-])cc2Cl)c2ccc(C(F)(F)F)nc12 [SCH-351591]
- BASOPHIL (96 h, time 4 day): 0.5%
- EOSINOPHIL (96 h, time 4 day): 1.85%
- ERYTHROCYTE COUNT (96 h, time 4 day): 6.99 x10E6/uL
- HEMATOCRIT (96 h, time 4 day): 43.82%
- HEMOGLOBIN (96 h, time 4 day): 13.87 G/DL
- LEUKOCYTE COUNT (96 h, time 4 day): 12.01 x10E3/uL
- LYMPHOCYTE (96 h, time 4 day): 82.07%
- MEAN CORPUSCULAR HEMOGLOBIN (96 h, time 4 day): 19.8 pg
- MEAN CORPUSCULAR HEMOGLOBIN CONCENTRATION (96 h, time 4 day): 31.63 G/DL
- MEAN CORPUSCULAR VOLUME (96 h, time 4 day): 62.7 fL
- MONOCYTE (96 h, time 4 day): 2.6%
- NEUTROPHIL (96 h, time 4 day): 12.38%
- PLATELET COUNT (96 h, time 4 day): 1155 x10E3/uL
- ALANINE AMINOTRANSFERASE (96 h, time 4 day): 31.67 u/L
- ALBUMIN (96 h, time 4 day): 4.12 G/DL
- ALKALINE PHOSPHATASE (96 h, time 4 day): 396 u/L
- ASPARTATE AMINOTRANSFERASE (96 h, time 4 day): 75.67 u/L
- BLOOD UREA NITROGEN (96 h, time 4 day): 17.5 mg/dL
- CARBON DIOXIDE (96 h, time 4 day): 28.83 mmol/L
- CHLORIDE (96 h, time 4 day): 103.83 MEQ/L
- CHOLESTEROL (96 h, time 4 day): 84.83 mg/dL
- CREATINE PHOSPHOKINASE (96 h, time 4 day): 597.17 u/L
- CREATININE (96 h, time 4 day): 0.3 mg/dL
- GLUCOSE (96 h, time 4 day): 161.5 mg/dL
- LACTATE DEHYDROGENASE (96 h, time 4 day): 138.67 u/L
- LIPASE (96 h, time 4 day): 11.5 u/L
- PHOSPHORUS (96 h, time 4 day): 11.58 mg/dL
- POTASSIUM (96 h, time 4 day): 6.87 MEQ/L
- SODIUM (96 h, time 4 day): 146.83 MEQ/L
- TOTAL BILIRUBIN (96 h, time 4 day): 0.38 mg/dL
- TOTAL PROTEIN (96 h, time 4 day): 6.33 G/DL
- URIC ACID (96 h, time 4 day): 1.37 mg/dL
- BASOPHIL ([…], time 6 day): 0.37%
- EOSINOPHIL ([…], time 6 day): 0.38%
- ERYTHROCYTE COUNT ([…], time 6 day): 6.89 x10E6/uL
- HEMATOCRIT ([…], time 6 day): 47.38%
- HEMOGLOBIN ([…], time 6 day): 14.8 G/DL
- LEUKOCYTE COUNT ([…], time 6 day): 13.59 x10E3/uL
- LYMPHOCYTE ([…], time 6 day): 80.27%
- MEAN CORPUSCULAR HEMOGLOBIN ([…], time 6 day): 21.52 pg
- MEAN CORPUSCULAR HEMOGLOBIN CONCENTRATION ([…], time 6 day): 31.22 G/DL
- MEAN CORPUSCULAR VOLUME ([…], time 6 day): 68.83 fL
- MONOCYTE ([…], time 6 day): 2.78%
- NEUTROPHIL ([…], time 6 day): 15.65%
- PLATELET COUNT ([…], time 6 day): 1330.17 x10E3/uL
- BASOPHIL ([…], time 14 day): 0.38%
- EOSINOPHIL ([…], time 14 day): 0.6%
- ERYTHROCYTE COUNT ([…], time 14 day): 7.78 x10E6/uL
- HEMATOCRIT ([…], time 14 day): 48.3%
- HEMOGLOBIN ([…], time 14 day): 15.42 G/DL
- LEUKOCYTE COUNT ([…], time 14 day): 13.55 x10E3/uL
- LYMPHOCYTE ([…], time 14 day): 81.18%
- MEAN CORPUSCULAR HEMOGLOBIN ([…], time 14 day): 19.8 pg
- MEAN CORPUSCULAR HEMOGLOBIN CONCENTRATION ([…], time 14 day): 31.92 G/DL
- MEAN CORPUSCULAR VOLUME ([…], time 14 day): 62.08 fL
- MONOCYTE ([…], time 14 day): 1.72%
- NEUTROPHIL ([…], time 14 day): 15.17%
- PLATELET COUNT ([…], time 14 day): 1083.83 x10E3/uL
- ALANINE AMINOTRANSFERASE ([…], time 6 day): 36 u/L
- ALBUMIN ([…], time 6 day): 4.03 G/DL
- ALKALINE PHOSPHATASE ([…], time 6 day): 354.17 u/L
- ASPARTATE AMINOTRANSFERASE ([…], time 6 day): 76.5 u/L
- BLOOD UREA NITROGEN ([…], time 6 day): 19.33 mg/dL
- CARBON DIOXIDE ([…], time 6 day): 27.83 mmol/L
- CHLORIDE ([…], time 6 day): 105.5 MEQ/L
- CHOLESTEROL ([…], time 6 day): 68.83 mg/dL
- CREATINE PHOSPHOKINASE ([…], time 6 day): 383.83 u/L
- CREATININE ([…], time 6 day): 0.35 mg/dL
- GLUCOSE ([…], time 6 day): 165.83 mg/dL
- LACTATE DEHYDROGENASE ([…], time 6 day): 155.17 u/L
- LIPASE ([…], time 6 day): 9.83 u/L
- PHOSPHORUS ([…], time 6 day): 12.4 mg/dL
- POTASSIUM ([…], time 6 day): 6.9 MEQ/L
- SODIUM ([…], time 6 day): 147.33 MEQ/L
- TOTAL BILIRUBIN ([…], time 6 day): 0.52 mg/dL
- TOTAL PROTEIN ([…], time 6 day): 6.42 G/DL
- URIC ACID ([…], time 6 day): 1.6 mg/dL
- ALANINE AMINOTRANSFERASE ([…], time 14 day): 36.83 u/L
- ALBUMIN ([…], time 14 day): 4.13 G/DL
- ALKALINE PHOSPHATASE ([…], time 14 day): 328.17 u/L
- ASPARTATE AMINOTRANSFERASE ([…], time 14 day): 74.83 u/L
- BLOOD UREA NITROGEN ([…], time 14 day): 18.67 mg/dL
- CARBON DIOXIDE ([…], time 14 day): 29.33 mmol/L
- CHLORIDE ([…], time 14 day): 105.17 MEQ/L
- CHOLESTEROL ([…], time 14 day): 72 mg/dL
- CREATINE PHOSPHOKINASE ([…], time 14 day): 217.67 u/L
- CREATININE ([…], time 14 day): 0.45 mg/dL
- GLUCOSE ([…], time 14 day): 151.17 mg/dL
- LACTATE DEHYDROGENASE ([…], time 14 day): 133.17 u/L
- LIPASE ([…], time 14 day): 14.5 u/L
- PHOSPHORUS ([…], time 14 day): 11.55 mg/dL
- POTASSIUM ([…], time 14 day): 6.77 MEQ/L
- SODIUM ([…], time 14 day): 149.33 MEQ/L
- TOTAL BILIRUBIN ([…], time 14 day): 0.37 mg/dL
- TOTAL PROTEIN ([…], time 14 day): 6.62 G/DL
- URIC ACID ([…], time 14 day): 1.57 mg/dL
